Assay results published in patent US6063782A, “Pyrrolopyridazine derivatives” (Sankyo Company, Limited, priority 1994, dated 2000).

test system: Helicobacter pylori strains 9470, 9472 and 9474; experiment: Antibacterial activity against Helicobacter pylori; type: cell-based; conditions: strains 9470, 9472 and 9474, 37° C., 3 days, slightly aerobic; result given in words only
Procedure: Antibacterial activity against Helicobacter pylori The antibacterial activity of the compounds of the present invention were evaluated by measuring the minimum inhibitory concentration values (MIC) of the present compounds against Helicobacter pylori strains 9470, 9472 and 9474. These strains of Helicobacter pylori were incubated for 4 days on a plate medium. The medium was prepared by dissolving brain heart infusion agar (Product of DIFCO) in a defined amount of distilled water, by sterilization in an autoclave, injecting horse blood (Product of Nihon Seibutsu Zairyo Co.) into each plate for the medium to contain 7% of the blood and by solidifying. Under slightly aerobic conditions, Helicobacter pylori cultivated at 37° C. for 4 days was suspended in a physiological saline solution for its inocular size to be about 10^8 CFU/ml. The suspension was diluted 100 times, and about 10 μl of the diluted suspension was inoculated on a medium for MIC determination. The medium for MIC determination used had the same compounds as those for preculture. […] In a similar way to the preculture, Helicobacter pylori was cultivated at 37° C. for 3 days under slightly aerobic conditions. […] The minimum concentration which gave no bacterial growth was regarded as MIC of the compound of the present invention.

minimum inhibitory concentration (MIC) against Helicobacter pylori | SMILES
excellent antibacterial activity | C=CCn1c(C)c(C)c2cnnc(SCc3ccc(F)cc3)c21 [Example 34, 7-(4-Fluorobenzylthio)-2,3-dimethyl-1--(2-propenyl)ipyrrolo[2,3-d]pyridazine]
excellent antibacterial activity | CC=CCn1c(C)c(C)c2cnnc(SCc3ccc(F)cc3)c21 [Example 50, 1-(2-Butenyl)-7-(4-fluorobenylthio)-2,3-dimethylpyrrolo[2,3-d]pyridazine]
excellent antibacterial activity | CC/C=C/Cn1c(C)c(C)c2cnnc(OCc3ccccc3)c21 [Example 11, 7-Benzyloxy-2,3-dimethyl-1-(2-pentenyl)pyrrolo[2,3-d]pyridazine]
excellent antibacterial activity | C/C=C\Cn1c(C)c(C)c2cnnc(OCc3ccc(F)cc3)c21 [Example 29, 1-(2-Butenyl)-7-(4-fluorobenzyloxy)-2,3-dimethylpyrrolo[2,3-d]pyridazine]
excellent antibacterial activity | CC=CCn1c(C)c(C)c2cnnc(SCc3ccc(F)cc3F)c21 [Example 51, 1-(2-Butenyl)-7-(2,4-difluorobenzylthio)-2,3-dimethylpyrrolo[2,3-d]pyridazine]
excellent antibacterial activity | Cc1c(C)n(CC(F)(F)F)c2c(OCc3ccccc3)nncc12 [Example 15, 7-Benzyloxy-2,3-dimethyl-1-(2,2,2-trifluoroethyl)pyrrolo[2,3-d]pyridazine]
excellent antibacterial activity | CC=CCn1c(C)c(CC)c2cnnc(OCc3ccc(F)cc3)c21 [Example 56, 1-(2-Butenyl)-3-ethyl-7-(4-fluorobenzyloxy)-2-methylpyrrolo[2,3-d]pyridazine]
excellent antibacterial activity | C=CCn1c(C)c(CC)c2cnnc(OCc3ccccc3)c21 [Example 27, 7-Benzyloxy-3-ethyl-2-methyl-1-(2-propenyl)-6pyrrolo[2,3-d]pyridazine]
excellent antibacterial activity | CC=CCn1c(C)c(C)c2cnnc(SCc3c(F)cccc3Cl)c21 [Example 52, 1-(2-Butenyl)-7-(2-chloro-6-fluorobenzylthio)-2,3-dimethylpyrrolo[2,3-d]pyridazine]
excellent antibacterial activity | Cc1c(C)n(C/C=C/c2ccccc2)c2c(OCc3ccccc3)nncc12 [Example 6, 7-Benzyloxy-2,3-dimethyl-1-(3-phenyl-2-propenyl)pyrrolo[2,3-d]pyridazine]
excellent antibacterial activity | C=C=Cn1c(C)c(C)c2cnnc(OCc3ccccc3)c21 [Example 45, 7-Benzyloxy-2,3-dimethyl-1-(propane-1,2-dienyl)pyrrolo[2,3-d]pyridazine]
excellent antibacterial activity | C=CCn1c(C)c(C)c2cnnc(OCc3ccc(C(F)(F)F)cc3)c21 [Example 25, 2,3-Dimethyl-1-(2-propenyl)-7-(4-trifluoromethylbenzyloxy)pyrrolo[2,3-d]pyridazine]
excellent antibacterial activity | CC(C)=CCn1c(C)c(C)c2cnnc(OCc3ccccc3)c21 [Example 2, 7-Benzyloxy-2,3-dimethyl-1-(3-methyl-2-butenyl)pyrrolo[2,3-d]pyridazine]
excellent antibacterial activity | C=Cn1c(C)c(C)c2cnnc(OCc3ccccc3)c21 [Example 13, 7-Benzyloxy-2,3-dimethyl-1-vinylpyrrolo[2,3-d]pyridazine]
excellent antibacterial activity | Cc1c(C)n(C2CCCCC2)c2c(OCc3ccccc3)nncc12 [Example 23, 7-Benzyloxy-1-cyclohexyl-2,3-dimethylpyrrolo[2,3-d]pyridazine]
excellent antibacterial activity | Cc1c(C)n(CCF)c2c(OCc3ccccc3)nncc12 [Example 18, 7-Benzyloxy-1-(2-fluoroethyl)-2,3-dimethylpyrrolo[2,3-d]pyridazine]

Continued, molecule first:

SMILES | minimum inhibitory concentration (MIC) against Helicobacter pylori
CC=CCn1c(C)c(C)c2cnnc(OCc3ccccc3)c21 [Example 5, 7-Benzyloxy-1-(2-butenyl)-2,3-dimethylpyrrolo[2,3-d]pyridazine] | excellent antibacterial activity
Cc1c(C)n(CCCF)c2c(OCc3ccccc3)nncc12 [Example 19, 7-Benzyloxy-1-(3-fluoropropyl)-2,3-dimethylpyrrolo[2,3-d]pyridazine] | excellent antibacterial activity
C=CCn1c(C)c(C)c2cnnc(OCc3ccccc3F)c21 [Example 10, 7-(2-Fluorobenzyloxy)-2,3-dimethyl-1-(2-propenyl)nvrrolo[2,3-d]pyridazine] | excellent antibacterial activity
C=CCn1c(C)c(C)c2cnnc(OCc3cccc(F)c3)c21 [Example 8, 7-(3-Fluorobenzyloxy)-2,3-dimethyl-1-(2-propenyl)pyrrolo[2,3-d]pyridazine] | excellent antibacterial activity
Cc1c(C)n(CC(F)F)c2c(OCc3ccccc3)nncc12 [Example 20, 7-Benzyloxy-1-(2,2-difluoroethyl)-2,3-dimethylpyrrolo[2,3-d]pyridazine] | excellent antibacterial activity
Cc1c(C)n(C/C=C/c2ccccc2)c2c(OCc3ccc(F)cc3)nncc12 [Example 24, 7-(4-Fluorobenzyloxy)-2,3-dimethyl-1-(3-phenyl-2-propenyl)pyrrolo[2,3-d]pyridazine] | excellent antibacterial activity

test system: gastric acid secretion; experiment: Gastric acid secretion activity test using pyloric ligation in rats (Shay rat method); type: in vivo; conditions: male SD rats, 20 mg/kg injected into the duodenal region, 4 hours, result given in words only
Procedure: Gastric acid secretion activity test using pyloric ligation in rats (Shay rat method)
Pyloric ligation was conducted based on the method of Shay et al. [Gastroenterology, 5, 43 (1945)]. Male rats of SD strain were fasted for 24 hours; their abdomens were sectioned during anesthesia under ether. The duodenal and pyloric regions were exposed and the latter was ligated. A solution of a test compound (10 mg/ml) prepared by use of 1.5w parts of dimethylacetamide, 68.5% parts of polyethyleneglycol (PEG-400) and 30% parts of physiological saline solution, was injected into the duodenal region for the dose to be 20 mg/kg by use of a 1-ml syringe and an injection needle (26G). After injection of the test compound, the abdominal region was sutured. The animals were allowed to a stand for 4 hours without feeding food and water and then sacrified with carbon dioxide gas. The stomach was excised and gastric juice was gathered. The gastric juice sample was centrifuged (4° C., 2500 rpm, 15 minutes). The amount of the supernatant was measured to be as the gastric secretion. The acidity of the gastric juice was determined by the amount (ml) of 0.01 N sodium hydroxide solution required for titration of 0.1 ml of the supernatant to pH 7.0 by use of-an auto-titrating apparatus. The value of gastric acid secretion was calculated from the value of gastric secretion and the acidity of gastric juice. The inhibiting rate was obtained from the values of gastric acid secretion of the control group and of the administered group.

SMILES | inhibiting rate of gastric acid secretion
CC=CCn1c(C)c(C)c2cnnc(OCc3ccccc3)c21 [Example 5, 7-Benzyloxy-1-(2-butenyl)-2,3-dimethylpyrrolo[2,3-d]pyridazine] | excellent activity
CC/C=C/Cn1c(C)c(C)c2cnnc(OCc3ccccc3)c21 [Example 11, 7-Benzyloxy-2,3-dimethyl-1-(2-pentenyl)pyrrolo[2,3-d]pyridazine] | excellent activity
CC=CCn1c(C)c(C)c2cnnc(CCc3ccc(F)cc3)c21 [Example 62, 1-(2-Butenyl)-7-(4-fluorophenethyl)-2,3-dimethylpyrrolo[2,3-d]pyridazine] | excellent activity
CC=CCn1c(C)c(C)c2cnnc(OCc3c(F)cccc3Cl)c21 [Example 40, 1-(2-Butenyl)-7-(2-chloro-6-fluorobenzyloxy)-2,3-dimethylpyrrolo[2,3-d]pyridazine] | excellent activity
Cc1c(C)n(CC2CC2C)c2c(CCc3ccccc3)nncc12 (stereo not drawn) [Example 68, 2,3-Dimethyl-1-(2-methylcyclopropylmethyl)-7-phenethylpyrrolo[2,3-d]pyridazine] | excellent activity
C#CCn1c(C)c(C)c2cnnc(OCc3ccccc3)c21 [Example 42, 7-Benzyloxy-2,3-dimethyl-1-(2-propynyl)pyrrolo[2,3-d]pyridazine] | excellent activity
Cc1c(C)n(CC=C(Cl)Cl)c2c(OCc3ccccc3)nncc12 [Example 41, 7-Benzyloxy-1-(3,3-dichloro-2-propenyl)-2,3-dimethylpyrrolo[2,3-d]pyridazine] | excellent activity
C/C=C/Cn1c(CC)c(C)c2cnnc(OCc3ccc(F)cc3)c21 [Example 33, 1-(2-Butenyl)-2-ethyl-7-(4-fluorobenzyloxy)-3-methylpyrrolo[2,3-d]pyridazine] | excellent activity
C=C(C)Cn1c(C)c(C)c2cnnc(OCc3ccc(F)cc3)c21 [Example 26, 7-(4-Fluorobenzyloxy)-2,3-dimethyl-1-(2-methyl-2-propenyl)pyrrolo[2,3-d]pyridazine] | excellent activity
Cc1c(C)n(CC2CCCCC2)c2c(OCc3ccc(F)cc3)nncc12 [Example 37, 1-Cyclohexylmethyl-7-(4-fluorobenzyloxy)-2,3-dimethylpyrrolo[2,3-d]pyridazine] | excellent activity
CC=CCn1c(C)c(C)c2cnnc(OCc3cccnc3)c21 [Example 32, 1-(2-Butenyl)-2,3-dimethyl-7-(3-pyridylmethyloxy)pyrrolo[2,3-d]pyridazine] | excellent activity
